Source: patent US12036224B2, “Formulations, methods, kits, and dosage forms for treating atopic dermatitis and for improved stability of an active pharmaceutical ingredient” (Libertas Bio, Inc., priority 2017, dated 2024)
Values after ≈ are worked out from the molar mass of the structure shown. “Also recorded” adds a separate entry of the source.

Legend:
[1] = Phase 1/2 trial in solid tumors and hematologic malignancies: pharmacokinetics; assay type: in vivo, human
Protocol: (§1) Methods: Phase 1/2 clinical trial in patients with solid tumors and hematologic malignancies evaluates escalating oral doses of the formulation disclosed herein at 10, 20, 30, 40, 50, 75 and 100 mg BID and 80 and 120 mg QD mg (NCT02440685). Phase 1 allows patients with solid tumors or hematologic malignancies; Phase 2 allows only patients with diffuse large B-Cell lymphoma (DLBCL), follicular lymphoma (FL) or mantle cell lymphoma (MCL). Endpoints include safety, tolerability, pharmacokinetics, serum markers of inflammation, and response using RECIST or Lugano Classification System, […]

[2] = molecular target: JAK; assay: Pre-clinical kinase inhibition, JAK; assay type: biochemical; details: pre-clinical studies
Excerpt: (§2) A formulation of the disclosure comprising 2-(1-(4-((4-(4-hydroxypiperidin-1-yl)phenyl)amino)-5-oxo-5,6-dihydropyrimido[4,5-d]pyridazin-2-yl)piperidin-4-yl)acetonitrile comprises a potent inhibitor of Spleen Tyrosine Kinase (SYK) and Janus Kinases (JAK).

[3] = HCl solubility profile in organic solvents; assay type: physicochemical; details: organic solvent or mixture
Excerpt: (§3) Analytical studies for 2-(1-(4-((4-(4-hydroxypiperidin-1-yl)phenyl)amino)-5-oxo-5,6-dihydropyrimido[4,5-d]pyridazin-2-yl)piperidin-4-yl)acetonitrile are provided below in Tables 1-3: Table 1 provides the results of an HCl pH dependent solubility profile study, Table 2 provides the results of an HCl solubility profile in organic solvents, and Table 3 provides the results of an HCl stress study.

[4] = system: lesional skin of subjects with atopic dermatitis; assay: Phase 1b study in atopic dermatitis: skin biopsy biomarkers; assay type: in vivo, human
Excerpt: Assessment of Pharmacodynamics/Biomarker Parameters: • 1. Change from baseline in inflammatory markers in serum (including immune markers and CRP) • 2. Change from baseline in molecular skin biomarkers (inflammatory and barrier) • 3. Change from baseline in cellular markers (including reduction in inflammatory cells) • 4. Change from baseline in epidermal thickness and barrier markers in skin biopsies. Assessments of Efficacy Investigator's Global Assessment
For each subject, a maximum of four skin biopsies were collected during this study. Two punch biopsy samples (one from lesional skin and one from non-lesional skin) were collected at Day 1 and one punch biopsy was collected from the same lesional skin (outside the scar of the previous biopsies) at Day 15 (optional for subjects) and Day 29.
A panel of biological markers were assessed to determine the effect of Compound 1 on the disease process. These may include, but are not limited to: • Serum cytokines and inflammatory markers • Molecular skin biomarkers (inflammatory and barrier) • Circulating and tissue resident cellular phenotyping • Epidermal thickness and barrier markers from skin biopsies • Other biomarkers related autoimmune or inflammatory diseases Results: […]

[5] = system: rodent xenograft models of NHL and other hematologic malignancies; assay: Rodent xenograft models of NHL and other hematologic malignancies; assay type: in vivo
Excerpt: as §2

[6] = system: patients with solid tumors and hematologic malignancies; assay: Phase 1/2 trial in solid tumors and hematologic malignancies: safety and tolerability; assay type: in vivo, human
Protocol: as §1

[7] = Phase 1b study in atopic dermatitis: pharmacokinetics; assay type: in vivo, human
Protocol: Upon signing the informed consent, the each subject underwent screening assessments from Day −30 to Day −1 prior to study drug administration. On Day 1 (baseline), eligible subjects were randomized, subjected to the Day 1/baseline assessments and received Compound 1 at 20, 40 or 80 mg or placebo, dependent on cohort and randomization schedule. At this visit, PK/PD samples were collected at predose and up to 8 hours (or up to 12 hours at selected sites). Subjects were monitored in clinic for 2 hours following the first study drug administration. Subjects returned to the clinic on Day 2 for PK and PD samples (24 hours post dose).
Pre-dose PK and PD samples were collected on Days 8 and 29 (last day of treatment). On Day 15, PK/PD samples were also collected at pre-dose and up to 8 hours post-dose and subjects returned on Day 16 for PK and PD samples (24 hours post dose). Subjects came in for additional safety assessments on Days 8, 22 and 29, as well as at the end of the follow up period (Day 43). Disease assessments were conducted on Days 1, Day 15 and Day 29.
Assessment of PK variables: The following PK parameters for Compound 1 were derived from the concentration-time data of Compound 1 after the first and Day 15 dose administration in the fasted state, as data allowed: Cmax, tmax, AUC0-∞, AUC0-t, AUC0-24, λz, t1/2, CL/F and Vd/F

[8] = system: IL-17-SYK mediated CCL20 release, human keratinocytes; assay: Inhibition of IL17 mediated CCL20 release in keratinocytes; assay type: cell-based; details: single donor, n=3
Protocol: In FIG. 12, each bar represents mean and SEM for 3 replicates (n=3) of a single donor. FIG. 13 is a graph showing average weekly change in pruritus (NRS) for a placebo, and Compound 1 in the doses of 20 mg, 40 mg and 80 mg.

[9] = system: subjects with moderate-to severe atopic dermatitis; assay: Phase 1b study in atopic dermatitis: safety and tolerability; assay type: in vivo, human
Protocol: The study conducted was a randomized, double-blind, placebo-controlled, multicenter, sequential dose escalation study in subjects with moderate-to severe atopic dermatitis. The study included a screening period (up to 30 days) and a treatment period for 4 weeks with a 14 day follow up period that concluded with an end-of-study visit. Three sequential cohorts of 20, 40 and 80 mg QD were evaluated. At each dose level a total of 12 subjects were enrolled with 9 subjects receiving Compound 1, and 3 subjects receiving matching placebos.
Assessment of safety: Safety was assessed by AEs, vital signs, 12-lead ECG, physical examination, and laboratory safety assessments.

[10] = system: ibrutinib-resistant cell lines; assay: Pre-clinical proliferation in ibrutinib-resistant cell lines; assay type: cell-based
Excerpt: as §2

[11] = HCl stress study; assay type: physicochemical
Excerpt: as §3

[12] = system: patients with solid tumors and hematologic malignancies; assay: Phase 1/2 trial in solid tumors and hematologic malignancies: response and serum markers; assay type: in vivo, human
Protocol: as §1

[13] = 10 mg-100 mg BID and 80-120 mg QD
[14] = human, plasma, oral, day 15, 20, 40 and 80 mg

N#CCC1CCN(c2nc(Nc3ccc(N4CCC(O)CC4)cc3)c3c(=O)[nH]ncc3n2)CC1 [Compound 1, 2-(1-(4-((4-(4-hydroxypiperidin-1-yl)phenyl)amino)-5-oxo-5,6-dihydropyrimido[4,5-d]pyridazin-2-yl)piperidin-4-yl)acetonitrile]
systemic exposure (in words) ([1]; 80 mg QD): High systemic exposure | half-life ([1]; human, in vivo, steady-state, 40 mg BID, oral): 18 h | AUC(0-t) ([1]; human, in vivo, steady-state, 40 mg BID, oral, read-out: AUC (0-12 h)): 6.3 µM·h | Cmax ([1]; steady-state, 40 mg BID, oral): 700 nM | IC50 against JAK [2]: low nM | solubility ([3]; EtOH): 5000 µg/mL (≈ 10.8 mM) | solubility ([3]; IPA): 462 µg/mL (≈ 1 mM) | solubility ([3]; MeOH): 4440 µg/mL (≈ 9.63 mM) | T cell (CD3+) infiltration into all layers of the skin ([4]; 40 and 80 mg, Day 29): reduced | Myeloid DC (CD11c+) infiltration into all layers of the skin ([4]; 40 and 80 mg, as early as Day 15): reduced | cutaneous biomarkers (cellular infiltrates, immune and hyperplasia markers) ([4]; particularly in the mid and high dose): improvements in epidermal hyperplasia and cellular infiltrates observed as early as Day 15; also recorded: down regulates inflammatory pathways; also recorded: reversal of cutaneous biomarkers of inflammation | total skin thickness ([4]; skin biopsies, 20, 40 and 80 mg): Reductions in total skin thickness can be observed as early as Day 15 | tumor growth [5]: suppresses tumor growth | dose limiting adverse events [6, 13]: No dose limiting adverse events | tolerability [6, 13]: safe and well tolerated | MTD ([6]; dose escalation continues): has not been reached | grade of most drug-related adverse events ([6]; e.g. headache, fatigue): Gr 1/2 | Dose dependence of exposure (Cmax, AUC), in words ([7]; 20, 40 and 80 mg once daily): dose-dependent Cmax and AUC; also recorded: dose-dependent exposure | Inter- and intra-individual variability of PK, in words ([7]; 20, 40 and 80 mg once daily): low inter- and intra-individual variability; also recorded: minimum individual variability and accumulation | Tmax [7, 14]: 2 to 4 h | half-life [7, 14]: 10 to 14 h | inhibition of IL-17-SYK mediated CCL20 release [8]: inhibits IL-17-SYK mediated CCL20 release, from human keratinocytes, at levels similar to IL17 neutralizing antibodies | changes in chemistry lab parameters ([9]; in vivo): No clinically significant changes in chemistry lab parameters except asymptomatic, mild-to-moderate transient elevations of CPK | changes in hematologic lab parameters including platelets, neutrophils and lymphocytes ([9]; in vivo): No clinically significant changes | changes in lipid profile ([9]; in vivo): No changes in lipid profile | serious infections or thromboembolic events ([9]; in vivo): No serious infections or thromboembolic events occurred | tolerability ([9]; patients with moderate to severe atopic dermatitis, 20, 40, 80 mg once daily): well tolerated; also recorded: very well tolerated at all dose levels | most common adverse events ([9]; predominantly Day 1): transient, mild headache and nausea | proliferation [10]: decreases proliferation | % API based on Peak Area % ([11]; 1N HCl, rt, 24 hr): 100.00% | % API based on Peak Area % ([11]; 1N NaOH, rt, 24 hr): 99.54% | % API based on Peak Area % ([11]; 3% H2O2, rt, 30 hr): 83.00% | % API based on Peak Area % ([11]; 80° C., 24 hr): 99.93% | % API based on Peak Area % ([11]; UV, 23 hr): 99.80% | reduction in target lesions ([12]; 3 months, a FL patient (Lugano, 6 prior lines)): About 50% | response in a peripheral T-Cell lymphoma patient ([12]; after 2 months (Lugano, 2 prior lines)): stable disease and reduction of pruritus | CRP, IL-18, MIP1β, VCAM-1, TNFR2 (serum markers of inflammation) ([12]; all doses): Robust reduction | efficacy in NHL patients (in words) ([12]; in vivo): Encouraging preliminary evidence of efficacy
